ChEMBL document CHEMBL5727120, “Substituted pyrrolidines as mGluR5 antagonists” (2019)

Molecular target: Metabotropic glutamate receptor 5 (Rattus norvegicus, UniProt P31424)
Test: Functional Calcium Flux Assay: For functional assays, HEK293 cells stably expressing recombinant rat mGluR5 were seeded in 384-well plates and dye loaded using Fluo-8. Cells were then washed to remove the un-incorporated dye. Antagonist evaluation was performed following a 15 min incubation of the test compound followed by the addition of submaximal concentration of glutamate. Intracellular calcium ([Ca2+]i) measurements were performed using a fluorometric imaging plate reader (FLIPR, Molecular Devices). The glutamate-evoked increase in [Ca2+]i in the presence of the test compounds was compared to the response to glutamate alone (the positive control). Antagonist inhibition curves were fitted with a 4-parameter logistic equation giving IC50 values, and Hill coefficients using an iterative nonlinear curve fitting algorithm.

Metabotropic glutamate receptor 5, sequence (P31424 whole entry): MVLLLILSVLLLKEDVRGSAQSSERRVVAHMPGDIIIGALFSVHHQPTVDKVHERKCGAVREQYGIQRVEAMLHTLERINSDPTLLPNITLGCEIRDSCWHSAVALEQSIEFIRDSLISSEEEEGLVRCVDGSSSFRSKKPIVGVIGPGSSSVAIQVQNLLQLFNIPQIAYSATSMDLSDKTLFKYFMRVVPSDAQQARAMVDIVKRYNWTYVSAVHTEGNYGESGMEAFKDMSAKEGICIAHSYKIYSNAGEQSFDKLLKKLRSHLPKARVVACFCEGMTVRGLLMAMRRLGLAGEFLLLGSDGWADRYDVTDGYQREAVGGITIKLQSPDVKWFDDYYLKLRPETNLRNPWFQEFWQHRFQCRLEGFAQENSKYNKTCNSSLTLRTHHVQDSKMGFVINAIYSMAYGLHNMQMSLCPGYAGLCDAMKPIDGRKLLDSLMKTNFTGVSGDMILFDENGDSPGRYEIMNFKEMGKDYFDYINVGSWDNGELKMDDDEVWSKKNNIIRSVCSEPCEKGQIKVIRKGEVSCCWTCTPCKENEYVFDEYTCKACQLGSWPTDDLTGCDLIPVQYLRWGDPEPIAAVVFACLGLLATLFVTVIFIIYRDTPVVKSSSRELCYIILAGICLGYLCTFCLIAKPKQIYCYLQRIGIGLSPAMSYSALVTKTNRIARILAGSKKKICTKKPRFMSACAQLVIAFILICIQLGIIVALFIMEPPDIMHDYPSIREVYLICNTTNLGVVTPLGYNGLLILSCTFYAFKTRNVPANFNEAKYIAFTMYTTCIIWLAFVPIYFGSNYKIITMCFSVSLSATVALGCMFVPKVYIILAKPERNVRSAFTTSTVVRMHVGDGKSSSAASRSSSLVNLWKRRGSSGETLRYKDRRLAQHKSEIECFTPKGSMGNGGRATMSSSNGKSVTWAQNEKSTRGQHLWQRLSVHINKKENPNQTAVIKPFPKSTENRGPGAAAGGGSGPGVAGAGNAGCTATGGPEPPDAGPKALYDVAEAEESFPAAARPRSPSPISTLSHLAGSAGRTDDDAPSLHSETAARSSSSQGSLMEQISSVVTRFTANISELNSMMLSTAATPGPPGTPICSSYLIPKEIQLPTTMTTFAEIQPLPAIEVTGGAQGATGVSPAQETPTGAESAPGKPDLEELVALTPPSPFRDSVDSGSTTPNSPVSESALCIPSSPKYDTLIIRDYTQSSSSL

Compound: N#Cc1cc(F)cc(N2CC3CC3(C#Cc3cccc(Cl)n3)C2)c1 (stereo unspecified)
- IC50: < 500 nM
